Like-named read-outs stand apart in the source and are kept apart here.

The target of assay [1] is His-tagged human recombinant kinase full-length Akt1 (Homo sapiens (Human), UniProt P31749). As to the kind of experiment: Akt1 kinase assay (TR-FRET). It counts as biochemical. The following applies: 10 μM ATP; read-out: Akt1, median IC50. The protocol: Biological Assay 1.0: Akt1 Kinase Assay
Akt1 inhibitory activity of compounds of the present invention was quantified employing the Akt1 TR-FRET assay as described in the following paragraphs.
As substrate for the kinase reaction the biotinylated peptide biotin-Ahx-[…] (C-terminus in amide form) was used which can be purchased e.g. from the company Biosynthan GmbH (Berlin-Buch, Germany).
For the assay 50 nl of a 100 fold concentrated solution of the test compound in DMSO was pipetted into a black low volume 384 well microtiter plate (Greiner Bio-One, Frickenhausen, Germany), 2 μl of a solution of Akt1 in assay buffer [50 mM TRIS/HCl pH 7.5, 5 mM MgCl2, 1 mM dithiothreitol, 0.02% (v/v) Triton X-100 (Sigma)] were added and the mixture was incubated for 15 min at 22° C. to allow prebinding of the test compounds to the enzyme before the start of the kinase reaction. […] The concentration of Akt1 in the assay was adjusted depending of the activity of the enzyme lot and was chosen appropriate to have the assay in the linear range, typical enzyme concentrations were in the range of about 0.05 ng/μl (final conc. in the 5 μl assay volume).
The resulting mixture was incubated 1 h at 22° C. to allow the binding of the biotinylated phosphorylated peptide to the streptavidine-XL665 and the antibodies. Subsequently the amount of phosphorylated substrate was evaluated by measurement of the resonance energy transfer from the anti-mouse-IgG-Eu-Chelate to the streptavidine-XL665.

Assay [2] concerns p-AKT1/2/3-S473 in KPL4 breast tumour cell line. The experiment in a line: Cellular p-AKT1/2/3-S473 assay. The settings on record: read-out: pAKT-S743 median IC50. It counts as cell-based. The method, then: The molecular mechanism of action was investigated in a set of experiments to assess the inhibition of the PI3K-AKT-mTOR pathway in responsive cell lines such as KPL4 breast tumour cell line (PIK3CAH1047R, HER20/E and hormone independent). The phospho-substrates of PI3K-AKT-mTOR axis were used as the read-outs to reflect pathway inhibition. Cells were seeded at 60-80% confluency per well in 96-well cell culture plates. After overnight incubation at 37° C. 5% CO2, cells were treated with compounds and vehicle at 37° C. for 2 hours. […] All measurements where at least done in duplicates and confirmed by independent repetition.
Alternatively pAKT-S473 was measured using the “Akt Duplex” of the MULTI-SPOT® Assay System (Fa. Meso Scale Discovery, Cat# N41100B-1) following manufacturers instructions. Each assay used 20 μg of protein extract and measured total AKT and p-AKT content simultaneously in one well. All measurements where at least done in duplicates and confirmed by independent repetition. Values for P-AKT are expressed as percentage of P-AKT level compared to total-AKT content of the extracts.

In assay [3] the test system is KPL-4 breast cancer cell line. As to the kind of experiment: Tumor cell proliferation assay (CellTiter-Glo, 72 h), KPL-4. The format is cell-based. The method, then: Biological Assay 4.0: Tumor Cell Proliferation Assays
Compounds were tested in a cell-based assay that measures the capacity of the compounds to inhibit tumour cell proliferation following a 72h drug exposure. Cell viability is determined using CellTiter-Glow® (CTG, Promega, cat# G7571/2/3). The CellTiter-Glo® Luminescent Cell Viability Assay is a homogeneous method to determine the number of viable cells in culture. Detection is based on using the luciferase reaction to measure the amount of ATP from viable cells. The amount of ATP in cells correlates with cell viability. Within minutes after a loss of membrane integrity, cells lose the ability to synthesize ATP, and endogenous ATPases destroy any remaining ATP; thus the levels of ATP fall precipitously.
For each cell line assayed, cells were plated onto a separate plate for determination of […] at t=0 hour and t=72 hour time points. Following overnight incubation at 37° C., chemiluminescence values for the t=0 samples were determined after adding 10 μl medium and 100 μl CTG solution according to manufacture protocol. Plates for the t=72 hour time points were treated with compounds diluted into growth medium at ten times final concentration added in 10 μL to the cell culture plate. Cells were then incubated for 72 hours at 37° C. Chemiluminescence values for the t=72 hour samples were determined. […] Experiments were controlled using a reference compound as standard.

The mark [4] stands for this setting: KPL4 breast tumour cell line, 2 hours treatment.

His-tagged human recombinant kinase full-length Akt1, sequence (P31749 whole entry): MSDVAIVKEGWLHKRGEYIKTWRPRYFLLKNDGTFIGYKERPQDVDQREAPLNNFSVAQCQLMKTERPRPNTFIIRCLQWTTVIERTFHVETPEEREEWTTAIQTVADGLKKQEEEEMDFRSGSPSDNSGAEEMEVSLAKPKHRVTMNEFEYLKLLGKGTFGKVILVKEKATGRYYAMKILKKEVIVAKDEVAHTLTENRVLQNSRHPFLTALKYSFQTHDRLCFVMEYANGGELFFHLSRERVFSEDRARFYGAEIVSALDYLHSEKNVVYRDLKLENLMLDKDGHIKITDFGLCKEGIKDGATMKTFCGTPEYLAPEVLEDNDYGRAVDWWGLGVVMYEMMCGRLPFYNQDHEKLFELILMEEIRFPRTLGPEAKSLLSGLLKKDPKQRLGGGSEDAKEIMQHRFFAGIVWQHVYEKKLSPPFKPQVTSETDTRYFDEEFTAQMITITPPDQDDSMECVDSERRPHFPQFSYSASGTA

`C=Cc1ccn2c(-c3ccccc3)c(-c3ccc(C4(N)CCC4)cc3)nc2c1` [Example 2-108, 1-[4-(3-phenyl-7-vinyl-imidazo[1,2-a]pyridin-2-yl)-phenyl]-cyclobutylamine]: the IC50 in assay [1] is 1950 nM; in assay [2] (setting [4]), 3100 nM; in assay [3] (KPL4, 72h drug exposure) it was 10000 nM.

`NC1(c2ccc(-c3nc4cc(-c5ccncc5)ccn4c3-c3ccccc3)cc2)CCC1` [Example 2-109, 1-[4-(3-phenyl-7-pyridin-4-yl-imidazo[1,2-a]pyridin-2-yl)-phenyl]-cyclobutylamine]: the IC50 was 181 nM in assay [1]; 28 nM in assay [2] (setting [4]); 1500 nM in assay [3] (KPL4, 72h drug exposure).

Regarding `NC1(c2ccc(-c3nc4cc(-c5cc[nH]n5)ccn4c3-c3ccccc3)cc2)CCC1` [Example 2-112], the IC50 in assay [1] was 153 nM; in assay [2] (setting [4]), 66 nM; in assay [3] (KPL4, 72h drug exposure), 1700 nM.

Turning to `Cn1cncc1-c1ccn2c(-c3ccccc3)c(-c3ccc(C4(N)CCC4)cc3)nc2c1` [Example 2-116], the half-inhibitory concentration (IC50) in assay [1] worked out at 236 nM; in assay [2] (setting [4]), 63 nM; in assay [3] (KPL4, 72h drug exposure), 1600 nM.

As to `NC1(c2ccc(-c3nc4cc(-c5nn[nH]n5)ccn4c3-c3ccccc3)cc2)CCC1` [Example 2-117], the IC50 was found to be 26 nM in assay [1]; 10000 nM in assay [2] (setting [4]); 10000 nM in assay [3] (KPL4, 72h drug exposure).

In the case of `CCOC(=O)c1ccn2c(-c3ccccc3)c(-c3ccc(C4(N)CCC4)cc3)nc2c1` [Example 2-119], the concentration for half-maximal inhibition (IC50) in assay [1] stood at 86 nM; in assay [2] (setting [4]) it was 725 nM; in assay [3] (KPL4, 72h drug exposure) it was 4200 nM.

Turning to `NC1(c2ccc(-c3nc4cc(C(=O)O)ccn4c3-c3ccccc3)cc2)CCC1` [Example 2-120], the IC50 in assay [1] was 550 nM; in assay [2] (setting [4]), 8120 nM; in assay [3] (KPL4, 72h drug exposure), 10000 nM.

As to `CNC(=O)c1ccn2c(-c3ccccc3)c(-c3ccc(C4(N)CCC4)cc3)nc2c1` [Example 2-122], the IC50 in assay [1] came to 409 nM; in assay [2] (setting [4]) it was 46 nM; in assay [3] (KPL4, 72h drug exposure), 1200 nM.

Turning to `COC(=O)/C=C/c1ccn2c(-c3ccccc3)c(-c3ccc(C4(N)CCC4)cc3)nc2c1` [Example 2-123], the IC50 in assay [1] is 345 nM; in assay [2] (setting [4]), 268 nM; in assay [3] (KPL4, 72h drug exposure) it was 2400 nM.

As to `NC1(c2ccc(-c3nc4ccc(-c5cc[nH]n5)cn4c3-c3ccccc3)cc2)CCC1` [Example 2-131], the concentration for half-maximal inhibition (IC50) in assay [1] was 171 nM; in assay [2] (setting [4]), 88 nM; in assay [3] (KPL4, 72h drug exposure) it was 1700 nM.

Take `NC1(c2ccc(-c3nc4ccc(-c5nn[nH]n5)cn4c3-c3ccccc3)cc2)CCC1` [Example 2-135]: the 50% inhibitory concentration (IC50) in assay [1] was determined as 74 nM; in assay [2] (setting [4]), 9810 nM; in assay [3] (KPL4, 72h drug exposure), 10000 nM.

Regarding `NC1(c2ccc(-c3nc4ccc(-c5ccncc5)cn4c3-c3ccccc3)cc2)CCC1` [Example 2-136], the IC50 in assay [1] turned out to be 533 nM; in assay [2] (setting [4]), 150 nM; in assay [3] (KPL4, 72h drug exposure), 1900 nM.

Regarding `NC1(c2ccc(-c3nc4ccc(-c5cccnc5)cn4c3-c3ccccc3)cc2)CCC1` [Example 2-137], the 50% inhibitory concentration (IC50) stood at 541 nM in assay [1]; 149 nM in assay [2] (setting [4]); 1700 nM in assay [3] (KPL4, 72h drug exposure).

For the compound `NC1(c2ccc(-c3nc4ccc(-c5ccccn5)cn4c3-c3ccccc3)cc2)CCC1` [Example 2-138], the IC50 in assay [1] was determined as 530 nM; in assay [2] (setting [4]), 541 nM; in assay [3] (KPL4, 72h drug exposure) it was 2400 nM.

For the compound `NC1(c2ccc(-c3nc4ccc(Br)cn4c3-c3ccccc3)cc2)CCC1` [Example 2-139], the IC50 in assay [1] worked out at 44 nM; in assay [2] (KPL4, 2 h), 181 nM; in assay [3] (KPL4, 72h drug exposure) it was 2000 nM.

`COC(=O)/C=C/c1ccc2nc(-c3ccc(C4(N)CCC4)cc3)c(-c3ccccc3)n2c1` [Example 2-141]: the IC50 in assay [1] was 196 nM; in assay [2] (setting [4]), 361 nM; in assay [3] (72h drug exposure) it was 5300 nM.

In the case of `NC(=O)/C=C/c1ccc2nc(-c3ccc(C4(N)CCC4)cc3)c(-c3ccccc3)n2c1` [Example 2-142], the concentration for half-maximal inhibition (IC50) in assay [1] was found to be 347 nM; in assay [2] (setting [4]), 114 nM; in assay [3] (KPL4, 72h drug exposure), 2600 nM.

For the compound `Cn1cc(-c2ccn3c(-c4ccccc4)c(-c4ccc(C5(N)CCC5)cc4)nc3c2)cn1` [Example 2-150], the 50% inhibitory concentration (IC50) in assay [1] was 558 nM; in assay [2] (setting [4]), 66 nM; in assay [3] (KPL4, 72h drug exposure) it was 1700 nM.

Regarding `NCCOc1ccn2c(-c3ccccc3)c(-c3ccc(C4(N)CCC4)cc3)nc2n1` [Example 4-0, 1-{4-[7-(2-amino-ethoxy)-3-phenyl-imidazo[1,2-a]pyrimidin-2-yl]-phenyl}-cyclobutylamine], the IC50 in assay [1] is 548 nM; in assay [2] (setting [4]), 1460 nM; in assay [3] (KPL4, 72h drug exposure), 4600 nM.

Regarding `NC1(c2ccc(-c3nc4ccc(O)cn4c3-c3ccccc3)cc2)CCC1` [Example 5-0, 2-[4-(1-amino-cyclobutyl)-phenyl]-3-phenyl-imidazo[1,2-a]pyridin-6-ol], the IC50 in assay [1] was found to be 303 nM; in assay [2] (setting [4]), 103 nM; in assay [3] (KPL4, 72h drug exposure) it was 3200 nM.

Take `NC1(c2ccc(-c3nc4c(O)cccn4c3-c3ccccc3)cc2)CCC1` [Example 5-1, 2-[4-(1-amino-cyclobutyl)-phenyl]-3-phenyl-imidazo[1,2-a]pyridin-8-ol]: the concentration for half-maximal inhibition (IC50) in assay [1] is 590 nM; in assay [2] (setting [4]), 3480 nM; in assay [3] (KPL4, 72h drug exposure), 10000 nM.

With `C#Cc1ccn2c(-c3ccccc3)c(-c3ccc(C4(N)CCC4)cc3)nc2c1` [Example 7-0, 1-[4-(7-ethynyl-3-phenyl-imidazo[1,2-a]pyridin-2-yl)-phenyl]-cyclobutylamine], the half-inhibitory concentration (IC50) in assay [1] was 1660 nM; in assay [2] (setting [4]) it was 1770 nM; in assay [3] (KPL4, 72h drug exposure), 2400 nM.

For `NC(=O)CCc1ccn2c(-c3ccccc3)c(-c3ccc(C4(N)CCC4)cc3)nc2c1` [Example 8-0, 3-{2-[4-(1-amino-cyclobutyl)-phenyl]-3-phenyl-imidazo[1,2-a]pyridin-7-yl}-propionamide], the concentration for half-maximal inhibition (IC50) in assay [1] is 12700 nM; in assay [2] (setting [4]), 1270 nM; in assay [3] (KPL4, 72h drug exposure) it was 10000 nM.

Take `COC(=O)COc1ccn2c(-c3ccccc3)c(-c3ccc(C4(N)CCC4)cc3)nc2c1` [Example 9-0, {2-[4-(1-amino-cyclobutyl)-phenyl]-3-phenyl-imidazo[1,2-a]pyridin-7-yloxy}-acetic acid methyl ester]: the IC50 amounted to 158 nM in assay [1]; 923 nM in assay [2] (setting [4]); 2500 nM in assay [3] (KPL4, 72h drug exposure).

Consider `NC(=O)COc1ccn2c(-c3ccccc3)c(-c3ccc(C4(N)CCC4)cc3)nc2c1` [Example 9-1], for which the IC50 in assay [1] was 397 nM; in assay [2] (setting [4]) it was 90 nM; in assay [3] (KPL4, 72h drug exposure), 1700 nM.

With `CN(C)C(=O)COc1ccn2c(-c3ccccc3)c(-c3ccc(C4(N)CCC4)cc3)nc2c1` [Example 9-2], the half-maximal inhibitory concentration (IC50) in assay [1] came to 258 nM; in assay [2] (setting [4]), 25 nM; in assay [3] (KPL4, 72h drug exposure) it was 900 nM.

With `COC(=O)COc1ccc2nc(-c3ccc(C4(N)CCC4)cc3)c(-c3ccccc3)n2c1` [Example 9-4], the concentration for half-maximal inhibition (IC50) in assay [1] was determined as 179 nM; in assay [2] (setting [4]), 6470 nM; in assay [3] (KPL4, 72h drug exposure) it was 3100 nM.

Regarding `N#CCOc1ccc2nc(-c3ccc(C4(N)CCC4)cc3)c(-c3ccccc3)n2c1` [Example 9-5], the concentration for half-maximal inhibition (IC50) is 96 nM in assay [1]; 51 nM in assay [2] (setting [4]); 2200 nM in assay [3] (KPL4, 72h drug exposure).

Turning to `NC1(c2ccc(-c3nc4cc(O)ccn4c3-c3ccccc3)cc2)CCC1` [Example 10-0, 2-[4-(1-amino-cyclobutyl)-phenyl]-3-phenyl-imidazo[1,2-a]pyridin-7-ol], the IC50 in assay [1] was 1270 nM; in assay [2] (setting [4]), 308 nM; in assay [3] (KPL4, 72h drug exposure) it was 7900 nM.

(Values after patent US8975265B2, “Substituted imidazo[1,2-a]pyrimidines and —pyridines” (Bayer Intellectual Property GmbH, priority 2010, dated 2015).)
